Data published in patent publication US6627441B1, “Increasing levels of growth regulator and/or water stress during embryo development” (priority 1998, dated 2003).

Experiments:
[1] = tested on: Douglas fir somatic embryos; test: Douglas fir somatic embryogenesis (Example 11); format: cell-based
Method: Douglas fir may be cultured using sucrose at 1-3% (30-90 mM), however, other sugars may be used at the same concentrations. Maintenance cultures usually contain the sugar at about 1%. […] Douglas fir embryogenic tissue was induced from developing seed. Embryos contained in megametophytes were induced and maintained on TX maintenance medium having 1% sucrose. This medium contained 0.2 g/L glutamine and 0.2 g/L casein hydrolysate. Selected embryogenic tissue was subcultured biweekly per petri dish. Medium was solidified with 2.4 g/L PHYTAGEL™. This medium contained 9 μM 2,4-D and 4.5 μM BA. Liquid suspension cultures were maintained in flasks containing 50 mL liquid maintenance medium Liquid cultures were subcultured weekly. For maturation, the embryogenic suspension was first precultured in liquid medium without growth regulators, and subcultured weekly. The water potential of the maintenance cultures and precultures remained below 150 mmol/kg. After one or two weeks of preculture, 1 to 2 g of filtered tissue was resuspended in 10 mL fresh medium and 0.75 mL of the new suspension was pipetted onto the solid maturation medium. Maturation medium contained calcium chloride at 105 mg/L, and ammonium nitrate was included at 400 mg/L. Glutamine was used at 0.8 g/L for the first week then reduced to 0.1 g/L thereafter. Casein hydrolysate was maintained at 0.2 g/L. The sugar was increased to 2-3% and the medium was solidified with Phytagel at 2.8 to 3.4 g/L. ABA was added into the medium after filter sterilization. The maturation medium also contained PEG. The ABA and water potential were raised following the schedule in the following table.
In some instances, the PEG was reduced and the water potential made up to the desired level using lactose at 0% in the first week, 1% in week 2, 4% in weeks 3 and 4, 5% in week 5, and 6% in week 6. Although this allowed a firmer gel to set than otherwise would occur with PEG alone, it may not provide any other benefit over full PEG (see, for example, Table 8), particularly if liquid culture medium is used. […] The embryos were desiccated and stored in a freezer as described for spruce, or germinated directly without desiccation. For germination, embryos were placed on half-strength basal medium containing 0.4 g/L calcium nitrate, 0.2 g/L ammonium nitrate, no hormones and 2% sucrose and 0.6% agar. These were grown in the light.

[2] = tested on: Western larch somatic embryos; test: Western larch somatic embryogenesis (Example 10); format: cell-based, Western larch (Larix occidentalis Nutt.)
Method: In order to test the effect of increased ABA and osmoticum, somatic embryos were first cultured on ½ LM full hormone proliferation medium, then transferred to hormone-free preculture medium with 3% sucrose for one week prior to plating 0.75 mL of a 20% (w/v) suspension culture onto filter paper supports overlaying solidified maturation medium. The somatic embryos were plated on PEG medium of 330 mmol/kg and 16 μM ABA, then transferred to 380 mmol/kg PEG medium, 24 ABA after 1 week, then transferred to 450 mmol/kg PEG medium, 32 μM ABA after the third week. These were then either desiccated at week 5 or were transferred to 540 mmol/kg PEG, 40 μM ABA for up to two more weeks before desiccating.

[3] = tested on: white spruce somatic embryos; test: Germination and transfer to soil after increasing PEG/ABA culture (Example 8); format: cell-based
Method: In another experiment, white spruce somatic embryos were transferred through the 1/20 hormone increasing PEG/ABA liquid maturation culture (Example 7, treatment 8), then plated onto 20-40 μM ABA, 290-540 mmol/kg PEG transfer schedule (Example 4, treatment 6) followed by desiccation at 4° C. 203 embryos were selected and germinated at 4-12° C. for 4 weeks and produced roots and shoots with needles at a frequency of 191/203=94%. White spruce somatic seedlings produced subsequently using these methods survived transfer to soil in a greenhouse and underwent continued growth at frequencies of 95-100%. However, prolonging maturation of cotyledonary embryos in the presence of high water stress and ABA was detrimental to germination. Thus, after seven to eight weeks of culture of spruce somatic embryos the germination vigour (seedling elongation) and frequencies decreased. Late stage water stress of mid to late cotyledonary stage embryos to below about 30-40% moisture content preferably should not be carried out in the presence of a replenishing source of ABA. This will presumably prevent build up of endogenous ABA, and allow endogenous ABA levels to naturally decline.

[4] = tested on: white spruce somatic embryos; test: Somatic seedling length after desiccation and germination (Example 8); format: cell-based; details: ABA raised to 40 μM and water potential to 400 or 540 mmol/kg with PEG, versus control; two weeks
From the text: In order to desiccate the somatic embryos, they were transferred on their filter paper supports to an empty petri dish. The lid was replaced and left unsealed to prevent contamination while allowing the moisture to escape from the dish. Somatic embryos were desiccated in a sterile chamber in which sterile air at ambient relative humidity (usually 20-60% r.h.) was passed. Similarly, embryos may be desiccated in one or more controlled gaseous environments of relative humidity, ranging from about 5% to 100%. […] Embryos were usually left two weeks to dry. Desiccated embryos can then be stored, preferably frozen, or germinated directly.
For germination, the somatic embryos upon their filter paper supports were rehydrated on germination medium. This consisted of ½ LM, 2% sucrose, 0.7% agar (Sigma), with no growth regulators, glutamine or casein hydrolysate, in petri dishes or Sigma PHYTATRAYS™. […]
Somatic embryos were produced following the methods described in Example 4. […] One batch of desiccated spruce embryos produced using these methods was measured and a moisture content of about 7.7 (±0.2)% recorded. […] Two weeks after imbibition, the somatic plantlets were removed from the culture medium and their lengths were measured. Between 53 to 63 somatic plantlets were recorded per treatment.

[5] = ABA 30 to 60 μM and water potential 294 to 814 mmol/kg over 6 weeks

Question: Which results are given for `CC1=CC(=O)CC(C)(C)[C@@]1(O)/C=C/C(C)=C\C(=O)O` [ABA, abscisic acid]?
Answer: germination with shoot and needle development, frequency [1, 5]: ~100%; precocious germination [1, 5]: Precocious germination was prevented; survival after transfer to soil in a greenhouse, frequency ([1]; somatic plants produced using the methods of this invention): up to 95%; production of mature embryos ([2]; ABA and a mild water stress of 3% sucrose): rarely produced mature embryos; plantlets after desiccation and germination ([2]; PEG 330 to 450 or 540 mmol/kg with ABA 16 to 32 or 40 μM, desiccated and germinated): viable somatic plantlets with root and developing needles; precocious germination ([2]; PEG 330 to 450 or 540 mmol/kg with ABA 16 to 32 or 40 μM, five to seven weeks of culture): inhibited from germinating precociously; frequency of roots and shoots with needles ([3]; Example 7 treatment 8, then 20-40 μM ABA, 290-540 mmol/kg PEG schedule, desiccation at 4° C., germinated at 4-12° C. for 4 weeks): 94%; survival of transfer to soil in a greenhouse with continued growth ([3]; somatic seedlings produced using increasing PEG/ABA methods): 95-100%; increase in plantlet length [4]: ~50%
